In patent US11591604B2, “Gene expression in Bacteroides” (Massachusetts Institute of Technology, priority 2015, dated 2023):

tested on: NanoLuc; test: NanoLuc luciferase reporter expression from constitutive promoters and RBSs integrated with pNBU2; format: cell-based, B. thetaiotaomicron; settings: RBS combined with promoter PBT1311, NanoLuc reporter, three biological replicates

Point of comparison: “C49: RBS, SEQ ID NO: 129 (DNA TCCCGCATTTTAAAATAAAATAAATTATTGTTTTATTTAAACGAAT; chemistry not fully specified)”, “Average Luminescence (RLU/CFU)” value 0.001598 RLU/CFU. Against it:
- C24: RBS, SEQ ID NO: 67 (DNA TCCCGCATTTTAAAATAAAATAAATTATTTCTTTATTTAAACGAAT; chemistry not fully specified) — higher, 0.01287 RLU/CFU
- C25: RBS, SEQ ID NO: 72 (DNA TCCCGCATTTTAAAATAAAATAAATTATTATTTTACTTAAACGAAT; chemistry not fully specified) — higher, 0.01148 RLU/CFU
- C26: RBS, SEQ ID NO: 75 (DNA TCCCGCATTTTAAAATAAAATAAATTATTTATTTACTTAAACGAAT; chemistry not fully specified) — higher, 0.009775 RLU/CFU
- C27: RBS, SEQ ID NO: 76 (DNA TCCCGCATTTTAAAATAAAATAAATTATTTTTTTAGTTAAACGAAT; chemistry not fully specified) — higher, 0.009752 RLU/CFU
- C28: RBS, SEQ ID NO: 81 (DNA TCCCGCATTTTAAAATAAAATAAATTATTCATTTATTTAAACGAAT; chemistry not fully specified) — higher, 0.009278 RLU/CFU
- C29: RBS, SEQ ID NO: 86 (DNA TCCCGCATTTTAAAATAAAATAAATTATTTTTTTATTTAAACGAAT; chemistry not fully specified) — higher, 0.008233 RLU/CFU
- C30: RBS, SEQ ID NO: 88 (DNA TCCCGCATTTTAAAATAAAATAAATTATTTATTTATTTAAACGAAT; chemistry not fully specified) — higher, 0.008085 RLU/CFU
- C31: RBS, SEQ ID NO: 90 (DNA TCCCGCATTTTAAAATAAAATAAATTATTTATTTACTTAAACGAAT; chemistry not fully specified) — higher, 0.007861 RLU/CFU
- C32: RBS, SEQ ID NO: 91 (DNA TCCCGCATTTTAAAATAAAATAAATTATTGCTTTATTTAAACGAAT; chemistry not fully specified) — higher, 0.007717 RLU/CFU
- C33: RBS, SEQ ID NO: 93 (DNA TCCCGCATTTTAAAATAAAATAAATTATTAGTTTACTTAAACGAAT; chemistry not fully specified) — higher, 0.006912 RLU/CFU
- C34: RBS, SEQ ID NO: 96 (DNA TCCCGCATTTTAAAATAAAATAAATTATTCTTTTACTTAAACGAAT; chemistry not fully specified) — higher, 0.006727 RLU/CFU
- C35: RBS, SEQ ID NO: 99 (DNA TCCCGCATTTTAAAATAAAATAAATTATTCCTTTAATTAAACGAAT; chemistry not fully specified) — higher, 0.005815 RLU/CFU
- C36: RBS, SEQ ID NO: 100 (DNA TCCCGCATTTTAAAATAAAATAAATTATTACTTTATTTAAACGAAT; chemistry not fully specified) — higher, 0.005692 RLU/CFU
- C37: RBS, SEQ ID NO: 102 (DNA TCCCGCATTTTAAAATAAAATAAATTATTGGTTTAGTTAAACGAAT; chemistry not fully specified) — higher, 0.005598 RLU/CFU
- C38: RBS, SEQ ID NO: 108 (DNA TCCCGCATTTTAAAATAAAATAAATTATTCTTTTATTTAAACGAAT; chemistry not fully specified) — higher, 0.004774 RLU/CFU
- C39: RBS, SEQ ID NO: 109 (DNA TCCCGCATTTTAAAATAAAATAAATTATTCCTTTATTTAAACGAAT; chemistry not fully specified) — higher, 0.004534 RLU/CFU
- C40: RBS, SEQ ID NO: 115 (DNA TCCCGCATTTTAAAATAAAATAAATTATTCCTTTACTTAAACGAAT; chemistry not fully specified) — higher, 0.003759 RLU/CFU
- C41: RBS, SEQ ID NO: 117 (DNA TCCCGCATTTTAAAATAAAATAAATTATTGGTTTATTTAAACGAAT; chemistry not fully specified) — higher, 0.003107 RLU/CFU
- C42: RBS, SEQ ID NO: 119 (DNA TCCCGCATTTTAAAATAAAATAAATTATTCTTTTAGTTAAACGAAT; chemistry not fully specified) — higher, 0.002801 RLU/CFU
- C43: RBS, SEQ ID NO: 120 (DNA TCCCGCATTTTAAAATAAAATAAATTATTTCTTTAGTTAAACGAAT; chemistry not fully specified) — higher, 0.00264 RLU/CFU
- C44: RBS, SEQ ID NO: 122 (DNA TCCCGCATTTTAAAATAAAATAAATTATTTGTTTACTTAAACGAAT; chemistry not fully specified) — higher, 0.00249 RLU/CFU
- C45: RBS, SEQ ID NO: 124 (DNA TCCCGCATTTTAAAATAAAATAAATTATTCATTTAGTTAAACGAAT; chemistry not fully specified) — higher, 0.0024 RLU/CFU
- C46: RBS, SEQ ID NO: 125 (DNA TCCCGCATTTTAAAATAAAATAAATTATTTGTTTAGTTAAACGAAT; chemistry not fully specified) — higher, 0.001945 RLU/CFU
- C47: RBS, SEQ ID NO: 126 (DNA TCCCGCATTTTAAAATAAAATAAATTATTTGTTTAATTAAACGAAT; chemistry not fully specified) — higher, 0.00189 RLU/CFU
- C48: RBS, SEQ ID NO: 128 (DNA TCCCGCATTTTAAAATAAAATAAATTATTCCTTTAGTTAAACGAAT; chemistry not fully specified) — higher, 0.001758 RLU/CFU
- C50: RBS, SEQ ID NO: 132 (DNA TCCCGCATTTTAAAATAAAATAAATTATTTGTTTATTTAAACGAAT; chemistry not fully specified) — lower, 0.001261 RLU/CFU
- C51: RBS, SEQ ID NO: 136 (DNA TCCCGCATTTTAAAATAAAATAAATTATTATTTTATTTAAACGAAT; chemistry not fully specified) — lower, 0.0006273 RLU/CFU
- C52: RBS, SEQ ID NO: 138 (DNA TCCCGCATTTTAAAATAAAATAAATTATTGGTTTACTTAAACGAAT; chemistry not fully specified) — lower, 0.000163 RLU/CFU
- C53: RBS, SEQ ID NO: 140 (DNA TCCCGCATTTTAAAATAAAATAAATTATTCGTTTAATTAAACGAAT; chemistry not fully specified) — lower, 7.299E-05 RLU/CFU
- C54: RBS, SEQ ID NO: 141 (DNA TCCCGCATTTTAAAATAAAATAAATTATTCGTTTATTTAAACGAAT; chemistry not fully specified) — lower, 3.651E-05 RLU/CFU
- C55: RBS, SEQ ID NO: 142 (DNA TCCCGCATTTTAAAATAAAATAAATTATTCGTTTACTTAAACGAAT; chemistry not fully specified) — lower, 2.628E-05 RLU/CFU
- C56: RBS, SEQ ID NO: 143 (DNA TCCCGCATTTTAAAATAAAATAAATTATTCGTTTAGTTAAACGAAT; chemistry not fully specified) — lower, 2.2125E-05 RLU/CFU
- rpiL*: parent ribosomal protein RBS, SEQ ID NO: 39, 172, 174 (DNA TCCCGCATTTTAAAATAAAATAAATTATTTATTTAATTAAACGAAT; chemistry not fully specified) — higher, 0.02133 RLU/CFU

same assay, conditions: set of 8 RBSs, under control of PBT1311, NanoLuc reporter

Point of comparison: “rpiL*-C39: RBS, SEQ ID NO: 176; sequence and value match B39 of Table 1 (DNA TCCCGCATTTTAAAATAAAATAAATCATCTAGTTAATTAAACGAATATG; chemistry not fully specified)”, “Expression Level (RLU/CFU)” value 1.26E-03 RLU/CFU. Against it:
- C33: RBS, SEQ ID NO: 93 (DNA TCCCGCATTTTAAAATAAAATAAATTATTAGTTTACTTAAACGAAT; chemistry not fully specified) — higher, 6.91E-03 RLU/CFU
- C51: RBS, SEQ ID NO: 136 (DNA TCCCGCATTTTAAAATAAAATAAATTATTATTTTATTTAAACGAAT; chemistry not fully specified) — lower, 6.27E-04 RLU/CFU
- C52: RBS, SEQ ID NO: 138 (DNA TCCCGCATTTTAAAATAAAATAAATTATTGGTTTACTTAAACGAAT; chemistry not fully specified) — lower, 1.63E-04 RLU/CFU
- C53: RBS, SEQ ID NO: 140 (DNA TCCCGCATTTTAAAATAAAATAAATTATTCGTTTAATTAAACGAAT; chemistry not fully specified) — lower, 7.30E-05 RLU/CFU
- C56: RBS, SEQ ID NO: 143 (DNA TCCCGCATTTTAAAATAAAATAAATTATTCGTTTAGTTAAACGAAT; chemistry not fully specified) — lower, 2.21E-05 RLU/CFU
- rpiL*: parent ribosomal protein RBS, SEQ ID NO: 39, 172, 174 (DNA TCCCGCATTTTAAAATAAAATAAATTATTTATTTAATTAAACGAAT; chemistry not fully specified) — higher, 2.13E-02 RLU/CFU
